US5876676A, “Preservation of blood platelets” (priority 1996, dated 1999)

Assays:
[1] = following intracellular microinjection; cited from earlier work
[2] = system: barbed end of actin filaments; test: Pyrene-labeled actin assembly (nucleation) assay in detergent lysates of resting and thrombin-activated platelets; format: biochemical, human
Experimental: The effect of cell lysates on the rate and extent of pyrene-labeled rabbit skeletal muscle actin was determined as described previously (Hartwig, J., and P. Janmey, 1989 Biochim. Biophys. Acta. 1010:64-71). Suspensions of resting or thrombin-activated cells at concentrations of 1.4×10^8 /ml were permeabilized by the addition of 0.1 volume of 60 mM Pipes, 25 mM Hepes, 10 mM EGTA, 2 mM MgCl2, 0.75% Triton and 42 nM leupeptin, 10 mM benzamidine, and 0.123 mM aprotinin to inhibit proteases (Schliwa, J., et al., 1981 Proc. Natl. Acad. Sci. USA 80:5417-5420). 100 ul of detergent lysate was added to 190 ul of 100 mM KCl, 2 mM MgCl2, 0.5 mM ATP, 0.1 mM EGTA, 0.5 mM dithiothreitol, and 10 mM Tris, pH 7.0 and the polymerization rate assay was started by the addition of monomeric pyrene-labeled rabbit skeletal muscle actin to a final concentration of 2 uM. The relative contribution of nuclei with barbed or pointed ends in the cell lysates was determined by adding 2 uM cytochalasin B to the pyrene nucleation assay system. […] Activity not inhibited by cytochalasin B is considered pointed end assembly. […] To determine if the measured stimulation of actin assembly and its decay with time was due to the growth of pyrene-actin addition onto cellular filaments subject to depolymerization in the diluted lysate, 0.1 uM phalloidin or phallacidin was added to the cell lysates during their preparation to stabilize the filaments. […] However, we also determined that the soluble phase from cells permeabilized with detergent in the presence of EGTA contained calcium dependent nucleation activity. […] The amount of pointed end activity in these soluble extracts was determined by adding a final concentration of 2 uM cytochalasin B to the pyrene-actin assembly assay.
In reference to Table I, gel-filtered platelets were suspended to a concentration of 1.4×10^8 /ml in platelet buffer, rested for 30 minutes at 37° C., and then treated with or without 1 U/ml of thrombin for 15 s. […] Data are expressed as mean±SD, n=4.

[3] = system: pointed end actin nuclei in soluble fraction of platelet lysates; test: Calcium-sensitive soluble nucleation activity in supernatants of platelet lysates (pyrene-actin assembly); format: biochemical, human
Experimental: The effect of cell lysates on the rate and extent of pyrene-labeled rabbit skeletal muscle actin was determined as described previously (Hartwig, J., and P. Janmey, 1989 Biochim. Biophys. Acta. 1010:64-71). Suspensions of resting or thrombin-activated cells at concentrations of 1.4×10^8 /ml were permeabilized by the addition of 0.1 volume of 60 mM Pipes, 25 mM Hepes, 10 mM EGTA, 2 mM MgCl2, 0.75% Triton and 42 nM leupeptin, 10 mM benzamidine, and 0.123 mM aprotinin to inhibit proteases (Schliwa, J., et al., 1981 Proc. Natl. Acad. Sci. USA 80:5417-5420). 100 ul of detergent lysate was added to 190 ul of 100 mM KCl, 2 mM MgCl2, 0.5 mM ATP, 0.1 mM EGTA, 0.5 mM dithiothreitol, and 10 mM Tris, pH 7.0 and the polymerization rate assay was started by the addition of monomeric pyrene-labeled rabbit skeletal muscle actin to a final concentration of 2 uM. The relative contribution of nuclei with barbed or pointed ends in the cell lysates was determined by adding 2 uM cytochalasin B to the pyrene nucleation assay system. […] Activity not inhibited by cytochalasin B is considered pointed end assembly. The stability of nucleation activity in cell lysates was tested by comparing the stimulatory effect of fresh lysate on actin assembly with lysates allowed to stand for 30 s to 30 min at 37° C. before addition to the assembly assay. To determine if the measured stimulation of actin assembly and its decay with time was due to the growth of pyrene-actin addition onto cellular filaments subject to depolymerization in the diluted lysate, 0.1 uM phalloidin or phallacidin was added to the cell lysates during their preparation to stabilize the filaments. As shown in the results, all nucleation activity present in resting and activated cells was associated with the detergent-insoluble cytoskeleton. However, we also determined that the soluble phase from cells permeabilized with detergent in the presence of EGTA contained calcium dependent nucleation activity. Detergent lysates from resting and thrombin-activated cells (30 s, 1 U/ml) were centrifuged at 10,000 g for 2 min at room temperature in a microcentrifuge. The supernatant was removed and added to the pyrene-based nucleation assay in the presence of 1 mM EGTA or CaCl2. The amount of pointed end activity in these soluble extracts was determined by adding a final concentration of 2 uM cytochalasin B to the pyrene-actin assembly assay.
In reference to Table II, lysates were prepared from resting thrombin-treated cells with detergent and centrifuged in a Sorvall Microspin 12S at 13,000 rpm for 1 min. Nucleation activity remaining in the supernatant after removal of the cytoskeletal fraction was determined. […] The data are expressed as mean±SD, n=4. […]

platelets = test: Nucleation activity of cytoskeletons from platelets pre-incubated with cytochalasin B (pyrene-actin assembly, Table III); format: cell-based, human; conditions: for Assembly rate (barbed end): cytochalasin washed out; for Assembly rate (barbed end) / Assembly rate (pointed end): n=4
Experimental: The effect of inhibiting barbed end actin assembly in thrombin-activated cells before detergent lysis on the amount of nucleation activity was determined by preincubating resting platelet suspensions with 2 uM cytochalasin B for 5 min. Because it was necessary to wash out the cytochalasin B from some of the cytoskeletons before addition of the cell lysates to the pyrene assembly assay, the cells were first attached to glass coverslips while still in the presence of cytochalasin B. This was accomplished by sedimenting 0.3 ml of cell suspension onto a 12 mm round glass coverslip for 5 min at 250 g. Individual coverslips were removed, treated with thrombin for 15 s in the presence of cytochalasin B, permeabilized with 1× PHEM-Triton buffer containing 2 uM cytochalasin B for 15 s and then washed in PHEM buffer in the presence or absence of cytochalasin B. Coverslips were then immediately assayed for their ability to promote actin filament assembly as previously described by us using glass adherent macrophage cytoskeletons (Hartwig, J., and P. Janmey, 1989 Biochim. Biophys. Acta. 1010:64-71).
In reference to Table III, resting platelets were incubated with 2 μM cytochalasin B for 5 min, then adhered by centrifugation to 12-mm round glass coverslips coated with polylysine. Cells on the coverslips were exposed to 1 U/ml of thrombin for 30 s in the presence of cytochalasin B and then permeabilized with PHEM-Triton buffer. […] There were 4.2×10^7 platelets per assay. The data are expressed as mean ± SD, n=4. The barbed end assembly rate, initial pointed end addition rate and initial barbed end addition rate were as described in Table I.

cells in vitro = conditions: cited from earlier work
mice = conditions: cited from earlier work
[4] = Activated (thrombin), + 2 μM CB, supernatant, mean±SD, n=4
[5] = Activated: 2 μM cytochalasin B, 1 U/ml thrombin 30 s
[6] = Activated: 2 μM cytochalasin B, then 1 U/ml thrombin 30 s
[7] = Resting platelets incubated with 2 μM cytochalasin B
[8] = Resting platelets incubated with 2 μM cytochalasin B 5 min

For O=C(O)CN(CC(=O)O)c1ccccc1OCCOc1ccccc1N(CC(=O)O)CC(=O)O [BAPTA, 1,2-bis(2-aminophenoxy) ethane N,N,-N',N'-tetraacetic acid], the “Binding to membranes or toxic effects” value [1] is given as “little or no”.
With C=C1C(C)C2C(Cc3ccccc3)NC(=O)C23OC(=O)C=CC(O)CCCC(C)CC=CC3C1O (stereo not shown) [cytochalasin B] the “Pyrene actin assembly onto actin filaments at the barbed end” value ([2]; 2 uM cytochalasin B) was “completely inhibited”, the “Stimulatory effect of lysates on pyrene-actin assembly rate” value ([2]; 2 uM cytochalasin B added to assay, lysates of platelets activated with 1 U/ml thrombin) was “abolished” and the “Effect on nucleation activity of lysates from resting cells” value ([2]; 2 uM cytochalasin B added to lysates, resting platelets) was “only a small effect”. For the same compound, the “Calcium-dependent soluble actin nucleation activity” value ([3]; 2 uM cytochalasin B, soluble fraction, thrombin-activated platelets) was “completely unaffected”, the “Assembly Rate” value [3, 4] was 0.55 ± 0.02 nM/s and the Pointed nuclei/platelet [3, 4] was 5,000 ± 250. The “Subunits added to pointed ends” value [3, 4] was 1.0 ± 0.05 ×10^10 s^-1, the “Nucleation activity after cytochalasin B treatment of resting cells” value (platelets; 2 μM cytochalasin B, resting platelets) was “did not by itself result in nucleation activity” and the Barbed nuclei/platelet (platelets; [5]) was 380. The Pointed nuclei/platelet (platelets; [5]) was 1,980, the “Subunits added to barbed ends” value (platelets; [5]) was 3.9e+11 s⁻¹ and the “Subunits added to pointed ends” value (platelets; [5]) was 9.95e+10 s⁻¹. The “Assembly rate (barbed end)” value (platelets; [6]) was 1.59 nM/s, the “Assembly rate (pointed end)” value (platelets; [6]) was 0.55 nM/s and the Barbed nuclei/platelet (platelets; [7]) was 50. For the same compound, the Pointed nuclei/platelet (platelets; [7]) was 1,980, the “Subunits added to barbed ends” value (platelets; [7]) was 2e+10 s⁻¹ and the “Subunits added to pointed ends” value (platelets; [7]) was 9.95e+10 s⁻¹. The “Assembly rate (barbed end)” value (platelets; [8]) was 0.18 nM/s, the “Assembly rate (pointed end)” value (platelets; [8]) was 0.55 nM/s and the “Stimulation of pyrene-actin assembly rate by thrombin-activated, cytochalasin B-treated cytoskeletons compared with resting cells incubated with cytochalasin B” value (platelets; cytochalasin present during activation, washed away before assay) was “four-fold”. For the same compound, the MNTC (cells in vitro; 2 h) was ≤ 200 µM, the Non-cytotoxic concentration (cells in vitro; 2 h) was “up to 100 ug/ml” and the “Cytotoxicity on prolonged exposure” value (cells in vitro) was “reversible cytotoxicity”. For the same compound, the LD50 (mice; intraperitoneal) was 50 mg/kg, the “Time to clearance from all tissues but liver” value (mice; intraperitoneal) was ≤ 24 h and the “Recovery of injected cytochalasin B” value (mice; within a few minutes following injection) was 35%.
